These results are taken from patent publication US8586620B2, “Substituted indole compounds having NOS inhibitory activity” (NeurAxon, Inc., priority 2005, dated 2013).

Where two headings read alike, the source gives them in different places. Bounds are passed on as bounds.

The target in assay [1] is human neuronal constitutive NOS (nNOS) (Homo sapiens (Human), UniProt P29475). Briefly: Human nNOS enzyme assay, radiometric [3H]L-arginine to [3H]L-citrulline.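 On all read-outs here: recombinant human nNOS expressed in baculovirus-infected Sf9 cells, enzyme activity measured radiometrically as turnover of [3H]L-arginine into [3H]L-citrulline.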 The settings on record: for IC50: read-out: nNOSh.
Description: (§1) In a radiometric method, NO synthase activity was determined by measuring the conversion of [^3H]L-arginine to [^3H]L-citrulline.
(§2) The total volume of the reaction mixture was 150 μL in every well. […] The reaction was stopped by adding 20 μL of ice-cold buffer containing 100 mM HEPES, 3 mM EGTA, 3 mM EDTA, pH=5.5. [^3H]L-citrulline was separated by DOWEX (ion-exchange resin DOWEX 50 W X 8-400, SIGMA) and the DOWEX was removed by spinning at 12,000 g for 10 min in the centrifuge. […] All assays were performed at least in duplicate. Standard deviations were 10% or less.
Assay [2] addresses human endothelial constitutive NOS (eNOS) (Homo sapiens (Human), UniProt P29474). Briefly: Human eNOS enzyme assay, radiometric.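 Further: recombinant human eNOS expressed in baculovirus-infected Sf9 cells, activity read as [3H]L-arginine turned into [3H]L-citrulline, the product isolated on ion-exchange resin.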 To be noted: read-out: eNOSh.
Description: as §1, §2
Where [3] appears, read: Table I, human NOS, dihydrochloride or monohydrochloride salts.
Setting [4] is: Table II, human NOS, dihydrochloride or monohydrochloride salts.

In assay [1], `CN(C)CCc1c[nH]c2ccc(CNC(=N)c3cccs3)cc12` [Compound 59, N-((3-(2-(dimethylamino)ethyl)-1H-indol-5-yl)methyl)thiophene-2-carboximidamide] showed an e/n of 7. Also, the IC50 was 12.8 µM in assay [1] and 86.2 µM in assay [2] (setting [3]).
In the case of `CCN1CCC(c2c[nH]c3ccc(NC(=N)c4cccs4)cc23)CC1` [Compound 62, N-(3-(1-ethylpiperidin-4-yl)-1H-indol-5-yl)thiophene-2-carboximidamide], the e/n in assay [1] (Table I, ratio eNOSh/nNOSh) came to 24. Further, the IC50 in assay [1] (setting [3]) was 2.43 µM; in assay [2] (setting [3]) it was 57.3 µM.
In the same order, the values of `CN1CC=C(c2c[nH]c3ccc(NC(=S)NC(=O)c4ccccc4)cc23)CC1` [Compound 64, N-(3-(1-methyl-1,2,3,6-tetrahydropyridin-4-yl)-1H-indol-5-ylcarbamothioyl)benzamide] are 3, 14 µM and 43 µM.
In the case of `CCSC(=N)Nc1ccc2[nH]cc(C3=CCN(C)CC3)c2c1` [Compound 67, Ethyl 3-(1-methyl-1,2,3,6-tetrahydropyridin-4-yl)-1H-indol-5-ylcarbamimidothioate], the e/n in assay [1] (Table I, ratio eNOSh/nNOSh) turned out to be 22. In addition, the IC50 in assay [1] (setting [3]) is 4.8 µM; in assay [2] (setting [3]) it was 105 µM.
In the same order, the values of `N=C(Nc1ccc2[nH]cc(C3CCN(C(=O)c4ccccc4)CC3)c2c1)c1cccs1` [Compound 70, N-(3-(1-benzoylpiperidin-4-yl)-1H-indol-5-yl)thiophene-2-carboximidamide] are 9.06, 5.62 µM and 50.9 µM.
In the same order, the values of `N=C(Nc1ccc2[nH]cc(-c3ccncc3)c2c1)c1cccs1` [Compound 73, N-(3-(pyridin-4-yl)-1H-indol-5-yl)thiophene-2-carboximidamide] are 19.7, 2.2 µM and 43.4 µM.
Take `CSC(=N)Nc1ccc2[nH]cc(C3=CCN(C)CC3)c2c1` [Compound 75, Methyl 3-(1-methyl-1,2,3,6-tetrahydropyridin-4-yl)-1H-indol-5-ylcarbamimidothioate]: the e/n in assay [1] (Table I, ratio eNOSh/nNOSh) is given as 16.0. Besides, the values for the IC50 in assay [1] (setting [3]) and in assay [2] (setting [3]) were 2.25 µM and 36.1 µM, respectively.
For `N=C(Nc1ccc2[nH]cc(C3CCN(C(=N)c4cccs4)CC3)c2c1)c1cccs1` [Compound 77, N-(3-(1-(imino(thiophen-2-yl)methyl)piperidin-4-yl)-1H-indol-5-yl)thiophene-2-carboximidamide] the same measures were 6.19, 0.717 µM and 4.44 µM.
Turning to `N=C(Nc1ccc2[nH]cc(C3CCNCC3)c2c1)c1cccs1` [Compound 88, N-(3-(piperidin-4-yl)-1H-indol-5-yl)thiophene-2-carboximidamide], the e/n in assay [1] (Table I, ratio eNOSh/nNOSh) was 8.5. Further, the IC50 in assay [1] (setting [3]) is 9.23 µM; in assay [2] (setting [3]), 78.1 µM.
For `CN1C2C=C(c3c[nH]c4ccc(NC(=N)c5cccs5)cc34)CC1CC2` (centres unmarked) [Compound 90, N-(3-(8-methyl-8-azabicyclo[3.2.1]oct-3-en-3-yl)-1H-indol-5-yl)thiophene-2-carboximidamide] the same measures were 20.3, 3.35 µM and 67.9 µM.
In the same order, the values of `CNC1CC=C(c2c[nH]c3ccc(NC(=N)c4cccs4)cc23)CC1` (centres unmarked) [Compound 100, N-(3-(4-(methylamino)cyclohex-1-enyl)-1H-indol-5-yl)thiophene-2-carboximidamide] are 18.5, 1.73 µM and 32 µM.
For `CN1CCC[C@@H]1Cc1c[nH]c2ccc(NC(=N)c3ccco3)cc12` [Compound 106, (R)-N-(3-((1-Methylpyrrolidin-2-yl)methyl)-1H-indol-5-yl)furan-2-carboximidamide] the same measures were 13.0, 2.08 µM and 27.1 µM.
As to `CN1CCC[C@H]1Cc1c[nH]c2ccc(NC(=N)c3ccco3)cc12` [Compound 107, (S)-N-(3-((1-methylpyrrolidin-2-yl)methyl)-1H-indol-5-yl)furan-2-carboximidamide], the e/n in assay [1] (Table I, ratio eNOSh/nNOSh) was determined as 9.9. In addition, the IC50 in assay [1] (setting [3]) turned out to be 2.52 µM; in assay [2] (setting [3]), 24.9 µM.
For `CN(C)C1CC=C(c2c[nH]c3ccc(NC(=N)c4cccs4)cc23)CC1` (centres unmarked) [Compound 114, N-(3-(4-(dimethylamino)cyclohex-1-enyl)-1H-indol-5-yl)thiophene-2-carboximidamide] the same measures were 17.1, 3 µM and 51.4 µM.
Take `N=C(Nc1ccc2ccn(CCc3ccccc3)c2c1)c1cccs1` [Compound 115]: the e/n in assay [1] (Table II, ratio eNOSh/nNOSh) is on record as above 8.3. Also, the IC50 was 12 µM in assay [1] and above 100 µM in assay [2].
Take `CN(C)C1CCC(c2c[nH]c3ccc(NC(=N)c4cccs4)cc23)CC1` (centres unmarked) [Compound 116, N-(3-(4-(dimethylamino)cyclohexyl)-1H-indol-5-yl)thiophene-2-carboximidamide]: the e/n in assay [1] (Table I, ratio eNOSh/nNOSh) turned out to be 9.2. For the same compound, the IC50 in assay [2] (setting [3]) was determined as 31.8 µM.
For the compound `N=C(Nc1ccc2[nH]cc(C3CN4CCC3CC4)c2c1)c1cccs1` (centres unmarked) [Compound 126, N-(3-(quinuclidin-3-yl)-1H-indol-5-yl)thiophene-2-carboximidamide], the e/n in assay [1] (Table I, ratio eNOSh/nNOSh) was 30.9. Besides, the values for the IC50 in assay [1] (setting [3]) and in assay [2] (setting [3]) were 1.04 µM and 32.1 µM, respectively.
Consider `N=C(Nc1ccc2[nH]cc(C3CN4CCC3CC4)c2c1)c1ccco1` (centres unmarked) [Compound 127, N-(3-(quinuclidin-3-yl)-1H-indol-5-yl)furan-2-carboximidamide], for which the e/n in assay [1] (Table I, ratio eNOSh/nNOSh) was determined as 25.3. Further, the IC50 in assay [1] (setting [3]) came to 2.6 µM; in assay [2] (setting [3]), 66 µM.
`CN1CC=C(c2c[nH]c3ccc(NC(=N)c4cccs4)cc23)C(F)C1` (centres unmarked) [Compound 134, N-(3-(3-fluoro-1-methyl-1,2,3,6-tetrahydropyridin-4-yl)-1H-indol-5-yl)thiophene-2-carboximidamide]: the e/n in assay [1] (Table I, ratio eNOSh/nNOSh) came out at 51.4. The IC50 came out at 2.78 µM in assay [1] (setting [3]) and 143 µM in assay [2] (setting [3]).
Regarding `N=C(Nc1ccc2ccn(CCN3CCCCC3)c2c1)c1cccs1` [Compound 136], in assay [1] (Table II, ratio eNOSh/nNOSh), the e/n was 7.8. Further, the IC50 worked out at 0.49 µM in assay [1] (setting [4]) and 3.8 µM in assay [2] (setting [4]).
For `CN1CCC[C@@H]1CCn1ccc2ccc(NC(=N)c3cccs3)cc21` [Compound 138] the same measures were 50, 0.32 µM and 16 µM.
For `CN1CCC[C@H]1CCn1ccc2ccc(NC(=N)c3cccs3)cc21` [Compound 139] the same measures were 120, 0.2 µM and 24 µM.
For `CN1CCCC(n2ccc3ccc(NC(=N)c4cccs4)cc32)CC1` (centres unmarked) [Compound 156] the same measures were 42.5, 0.87 µM and 37 µM.
Regarding `CN(C)CCCn1ccc2ccc(NC(=N)c3cccs3)cc21` [Compound 157, N-(1-(3-(dimethylamino)propyl)-1H-indol-6-yl)thiophene-2-carboximidamide], the e/n in assay [1] (Table II, ratio eNOSh/nNOSh) was found to be 41.1. Further, the figures for the IC50 in assay [1] (setting [4]) and in assay [2] (setting [4]) were 0.7 µM and 28.3 µM, respectively.
In the same order, the values of `CCN(CC)CCCn1ccc2ccc(NC(=N)c3cccs3)cc21` [Compound 158] are 17.2, 0.59 µM and 10.2 µM.
